From patent publication US20100022534A1, “2-BENZIMIDAZOLYL-6-MORPHOLINO-4- (AZETIDINE, PYRROLIDINE, PIPERIDINE OR AZEPINE) PYRIMIDINE DERIVATIVES AS PI3K AND MTOR INHIBITORS FOR THE TREATMENT OF PROLIFERATIVE DISORDERS” (AstraZeneca, priority 2006, published 2010)

Legend:
[1] = system: phosphorylation of Serine 473 in Akt; assay: In vitro phospho-Ser473 Akt assay in MDA-MB-468 cells, Test (c); type: cell-based; conditions: Homo sapiens, read-out: IC50, inhibition of phosphorylation of Serine 473 in Akt
Procedure: (c) In Vitro Phospho-Ser473 Akt Assay
This assay determines the ability of test compounds to inhibit phosphorylation of Serine 473 in Akt as assessed using Acumen Explorer technology (TTP LabTech Limited, Royston, Herts, SG8 6EE, UK), a plate reader that can be used to rapidly quantitate features of images generated by laser-scanning.
A MDA-MB-468 human breast adenocarcinoma cell line (LGC Promochem, Teddington, Middlesex, UK, Catalogue No. HTB-132) was routinely maintained at 37° C. with 5% CO2 up to a confluency of 70-90% in DMEM containing 10% FCS and 1% L-glutamine.
For the assay, the cells were detached from the culture flask using ‘Accutase’ (Innovative Cell Technologies Inc., San Diego, Calif., USA; Catalogue No. AT104) using standard tissue culture methods and resuspended in media to give 5.5×10^4 cells per ml. Aliquots (90 μl) were seeded into each of the inner 60 wells of a black ‘Costar’ 96-well plate (Corning Inc., NY, USA; Catalogue No. 3904) to give a density of ˜5000 cells per well. Aliquots (90 μl) of culture media were placed in the outer wells to prevent edge effects. [An alternative cell handling procedure involved the maintenance of the cells in a ‘SelecT’ robotic device (The Automation Partnership, Royston, Herts SG8 5WY, UK). Cells were resuspended in media to give 5×10^4 cells per ml. […]

p110α Type Ia human PI3K = target: T1, p110α Type Ia human PI3K (Homo sapiens, UniProt P42336); assay: In vitro PI3K enzyme assay (AlphaScreen), Test (a); type: biochemical; conditions: read-out: IC50 versus p110α Type Ia human PI3K
T1 construct: full length DNA of each of the p110α, p110β and p110δ Type Ia human PI3K p110 isoforms; 6-His; made in house
T1 sequence (P42336 whole entry, canonical isoform): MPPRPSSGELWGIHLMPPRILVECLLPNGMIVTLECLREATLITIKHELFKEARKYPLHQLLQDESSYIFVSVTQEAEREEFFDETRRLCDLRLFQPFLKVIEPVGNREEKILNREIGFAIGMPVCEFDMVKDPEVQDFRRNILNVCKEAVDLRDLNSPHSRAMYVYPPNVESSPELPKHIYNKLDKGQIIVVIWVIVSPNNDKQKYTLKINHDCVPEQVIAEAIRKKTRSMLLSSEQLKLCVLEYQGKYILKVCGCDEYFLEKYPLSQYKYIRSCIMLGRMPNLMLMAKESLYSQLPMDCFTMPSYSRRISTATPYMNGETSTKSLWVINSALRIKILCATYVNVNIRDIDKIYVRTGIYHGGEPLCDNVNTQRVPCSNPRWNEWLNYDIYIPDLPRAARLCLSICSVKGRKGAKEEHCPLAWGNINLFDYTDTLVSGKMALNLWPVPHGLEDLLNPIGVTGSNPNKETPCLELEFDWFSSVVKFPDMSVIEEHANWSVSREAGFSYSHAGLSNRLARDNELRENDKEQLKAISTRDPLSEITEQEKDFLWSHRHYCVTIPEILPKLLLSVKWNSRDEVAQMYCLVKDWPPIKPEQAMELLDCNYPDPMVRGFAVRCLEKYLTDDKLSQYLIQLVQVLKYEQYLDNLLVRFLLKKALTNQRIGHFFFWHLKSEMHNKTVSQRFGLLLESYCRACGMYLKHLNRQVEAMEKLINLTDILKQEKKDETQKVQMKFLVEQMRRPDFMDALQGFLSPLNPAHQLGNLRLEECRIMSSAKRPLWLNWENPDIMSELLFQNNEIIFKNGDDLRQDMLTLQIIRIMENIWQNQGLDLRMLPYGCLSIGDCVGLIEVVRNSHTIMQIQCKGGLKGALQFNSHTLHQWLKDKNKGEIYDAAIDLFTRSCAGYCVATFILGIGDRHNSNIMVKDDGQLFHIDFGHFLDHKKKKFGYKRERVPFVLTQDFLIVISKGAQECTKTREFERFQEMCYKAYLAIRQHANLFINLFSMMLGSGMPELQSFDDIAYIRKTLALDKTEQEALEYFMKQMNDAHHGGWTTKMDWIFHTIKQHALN
T1 sequence (P27986 whole entry partner, canonical isoform): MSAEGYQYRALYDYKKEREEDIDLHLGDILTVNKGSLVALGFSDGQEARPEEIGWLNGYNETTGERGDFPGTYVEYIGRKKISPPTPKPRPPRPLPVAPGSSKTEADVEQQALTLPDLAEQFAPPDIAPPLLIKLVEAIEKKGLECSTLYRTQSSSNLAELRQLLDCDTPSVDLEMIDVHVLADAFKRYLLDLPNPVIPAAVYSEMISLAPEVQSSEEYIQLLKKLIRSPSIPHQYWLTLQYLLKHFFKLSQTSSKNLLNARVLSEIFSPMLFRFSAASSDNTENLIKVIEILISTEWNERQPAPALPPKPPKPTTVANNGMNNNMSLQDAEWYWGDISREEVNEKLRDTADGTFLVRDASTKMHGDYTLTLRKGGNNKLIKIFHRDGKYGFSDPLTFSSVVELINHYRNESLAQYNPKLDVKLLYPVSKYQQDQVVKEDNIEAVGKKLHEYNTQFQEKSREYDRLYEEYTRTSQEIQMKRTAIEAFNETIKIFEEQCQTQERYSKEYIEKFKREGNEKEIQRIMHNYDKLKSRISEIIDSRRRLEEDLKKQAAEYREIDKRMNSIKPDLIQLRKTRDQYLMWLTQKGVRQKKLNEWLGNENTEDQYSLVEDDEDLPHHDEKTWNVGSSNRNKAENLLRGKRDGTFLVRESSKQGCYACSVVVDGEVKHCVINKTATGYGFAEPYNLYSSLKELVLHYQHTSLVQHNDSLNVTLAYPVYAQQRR
Text: (a) In Vitro PI3K Enzyme Assay
The assay used AlphaScreen technology (Gray et al., Analytical Biochemistry, 2003, 313: 234-245) to determine the ability of test compounds to inhibit phosphorylation by recombinant Type I PI3K enzymes of the lipid PI(4,5)P2.
DNA fragments encoding human PI3K catalytic and regulatory subunits were isolated from cDNA libraries using standard molecular biology and PCR cloning techniques. The selected DNA fragments were used to generate baculovirus expression vectors. In particular, full length DNA of each of the p110α, p110β and p110δ Type Ia human PI3K p110 isoforms (EMBL Accession Nos. HSU79143, S67334, Y10055 for p110α, p110β and p110δ respectively) were sub-cloned into a pDEST10 vector (Invitrogen Limited, Fountain Drive, Paisley, UK). The vector is a Gateway-adapted version of Fastbac1 containing a 6-His epitope tag. […]
Biotinylated-DiC8-PI(3,4,5)P3 (50 nM; Cell Signals Inc., Catalogue No. 107), recombinant purified GST-Grp1 PH protein (2.5 μM) and AlphaScreen Anti-GST donor and acceptor beads (100 ng; Packard Bioscience Limited, Station Road, Pangbourne, Berkshire, UK, Catalogue No. 6760603M) were added and the assay plates were left for about 5 to 20 hours at room temperature in the dark. The resultant signals arising from laser light excitation at 680 nm were read using a Packard AlphaQuest instrument. […]

Row | SMILES | IC50 [1] [nM] | IC50 (p110α Type Ia human PI3K) [nM]
1 | O=C(NC1CCN(c2cc(N3CCOCC3)nc(-n3c(C(F)F)nc4ccccc43)n2)CC1)[C@@H]1CCCN1 [Example 3, 2-(2-difluoromethylbenzimidazol-1-yl)-6-morpholino-4-(4-prolylaminopiperidin-1-yl)pyrimidine] | ~100 | ~400
2 | NCCC1CCN(c2cc(N3CCOCC3)nc(-n3c(C(F)F)nc4ccccc43)n2)CC1 [Example 1, 4-[4-(2-aminoethyl)piperidin-1-yl]-2-(2-difluoromethylbenzimidazol-1-yl)-6-morpholinopyrimidine] | ~10 | ~200
